Results: patent US5049372A, “Anticancer activities in a host by increasing blood and plasma adenosine 5'-triphosphate (ATP) levels” (priority 1988, dated 1991)

Assay: Rate of extracellular ATP degradation by human blood in vitro (Table 6)
Assay type: in vitro ADME
Conditions: 1 mM, 37° C.
Method: *Blood (450 μl) was withdrawn into a syringe containing either 50 μ
of citratedextrose or 50 μl of heparin (100 U/ml). Whole blood was the
added to 1 mM of [^3 H]ATP in saline (25 μl) and at various time
points blood aliquots (90 μl) were removed and centrifuged. Plasma (20
μl) was withdrawn and added to 1 ml of icecold trichloroacetic acid.
Thin layer chromatography on poly(ethylene)imine cellulose was performed
according to published procedures. The rate of degradation of 1 mM of
[^3 H]ATP was linear for mouse or human blood during the initial 30
minute incubation at 37° C.

Nc1ncnc2c1ncn2[C@@H]1O[C@H](COP(=O)(O)OP(=O)(O)OP(=O)(O)O)[C@@H](O)[C@H]1O [ATP, adenosine 5'-triphosphate]
Rate of extracellular ATP degradation (citrate): 1.75 pmol/µL/min
Rate of extracellular ATP degradation (heparin): 4.07 pmol/µL/min
